Experimental data published in article PMC9500845, “New Anticancer Theobromine Derivative Targeting EGFR^WT and EGFR^T790M: Design, Semi-Synthesis, In Silico, and In Vitro Anticancer Studies” (Molecules, 2022).

Target: EGFR (Homo sapiens, UniProt P00533)
Assay: in vitro EGFR enzyme inhibition, Human EGFR ELISA kit
Assay type: biochemical

Sequence of EGFR (P00533 25-1210): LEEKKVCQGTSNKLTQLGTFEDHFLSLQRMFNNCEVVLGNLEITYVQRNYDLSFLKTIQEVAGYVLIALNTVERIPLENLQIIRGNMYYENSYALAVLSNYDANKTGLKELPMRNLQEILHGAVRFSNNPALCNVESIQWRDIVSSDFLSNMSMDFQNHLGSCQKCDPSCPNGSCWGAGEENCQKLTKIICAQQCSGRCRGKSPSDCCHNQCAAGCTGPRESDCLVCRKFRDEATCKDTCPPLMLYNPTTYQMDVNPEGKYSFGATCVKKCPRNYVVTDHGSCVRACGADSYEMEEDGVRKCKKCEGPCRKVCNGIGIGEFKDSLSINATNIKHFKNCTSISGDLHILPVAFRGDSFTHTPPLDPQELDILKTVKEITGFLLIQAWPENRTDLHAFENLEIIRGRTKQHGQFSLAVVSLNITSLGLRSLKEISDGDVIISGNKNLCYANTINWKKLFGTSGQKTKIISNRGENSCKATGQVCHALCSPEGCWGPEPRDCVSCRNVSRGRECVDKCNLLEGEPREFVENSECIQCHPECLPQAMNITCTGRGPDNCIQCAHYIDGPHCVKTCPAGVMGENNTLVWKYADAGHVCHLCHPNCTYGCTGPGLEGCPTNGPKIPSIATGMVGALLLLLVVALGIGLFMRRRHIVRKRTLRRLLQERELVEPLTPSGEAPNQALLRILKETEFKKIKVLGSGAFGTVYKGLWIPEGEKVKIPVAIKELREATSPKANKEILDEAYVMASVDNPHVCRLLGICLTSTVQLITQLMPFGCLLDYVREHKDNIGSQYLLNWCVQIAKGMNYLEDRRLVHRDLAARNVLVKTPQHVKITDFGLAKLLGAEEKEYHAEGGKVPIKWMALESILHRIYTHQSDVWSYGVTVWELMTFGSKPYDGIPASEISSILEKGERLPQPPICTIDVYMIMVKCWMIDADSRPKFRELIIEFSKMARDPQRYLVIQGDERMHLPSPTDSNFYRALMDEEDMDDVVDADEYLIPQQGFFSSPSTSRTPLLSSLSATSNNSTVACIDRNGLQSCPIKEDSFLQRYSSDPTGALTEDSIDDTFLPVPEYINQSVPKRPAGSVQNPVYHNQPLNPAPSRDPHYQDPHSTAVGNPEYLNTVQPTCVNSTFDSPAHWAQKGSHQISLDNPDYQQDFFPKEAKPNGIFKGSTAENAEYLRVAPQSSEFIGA

IC50: 17.2 nM
Structure (SMILES): Cn1cnc2c1c(=O)n(CC(=O)NCc1ccccc1)c(=O)n2C [XI, N-Benzyl-2-(3,7-dimethyl-2,6-dioxo-2,3,6,7-tetrahydro-1H-purin-1-yl)acetamide]
